Reference: ChEMBL document CHEMBL4400540, “Structure-based design, synthesis and biological evaluation of a novel series of isoquinolone and pyrazolo[4,3-c]pyridine inhibitors of fascin 1 as potential anti-metastatic agents” (Bioorg Med Chem Lett, 2019)
Values after ≈ are worked out from the molar mass of the structure shown.

Legend:
[1] = target: T1, Fascin (Homo sapiens, UniProt Q16658)
[2] = target: T1, Fascin; remark: listed apart in the source
[3] = target: T1, Fascin; remark: listed apart in the source
[4] = Solubility of compound by turbidimetric method; assay type: physicochemical
[5] = Lipophilicity, log D of the compound at pH 7.4; assay type: physicochemical; details: buffer
[6] = Apparent permeability of the compound across apical side to basolateral side in human Caco2 cells; assay type: ADME, cell-based; details: caco-2
[7] = Efflux ratio of apparent permeability of the compound in human Caco2 cells; assay type: ADME, cell-based; details: caco-2
[8] = Intrinsic clearance in mouse microsomes assessed per mg protein; assay type: ADME, Microsome
[9] = Intrinsic clearance in human microsomes assessed per mg protein; assay type: ADME, Microsome
[10] = target: Cytochrome P450 3A4 (Homo sapiens, UniProt P08684); assay: Inhibition of CYP3A4 (unknown origin); assay type: ADME
Chain of Cytochrome P450 3A4 (P08684 whole entry): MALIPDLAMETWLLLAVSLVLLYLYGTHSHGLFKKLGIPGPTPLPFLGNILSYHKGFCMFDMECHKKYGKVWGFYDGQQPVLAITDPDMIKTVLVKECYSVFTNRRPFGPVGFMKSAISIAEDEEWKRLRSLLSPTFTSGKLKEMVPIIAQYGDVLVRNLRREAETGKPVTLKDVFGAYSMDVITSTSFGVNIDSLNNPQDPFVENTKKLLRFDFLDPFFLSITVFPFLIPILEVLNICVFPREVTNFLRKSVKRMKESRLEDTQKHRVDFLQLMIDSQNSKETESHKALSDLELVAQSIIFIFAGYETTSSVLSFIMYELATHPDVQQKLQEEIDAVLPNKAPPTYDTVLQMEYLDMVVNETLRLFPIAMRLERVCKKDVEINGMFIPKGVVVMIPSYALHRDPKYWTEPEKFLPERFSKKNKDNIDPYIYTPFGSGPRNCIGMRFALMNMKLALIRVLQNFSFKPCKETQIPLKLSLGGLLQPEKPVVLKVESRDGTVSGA

[11] = target: Cytochrome P450 2D6 (Homo sapiens, UniProt P10635); assay: Inhibition of CYP2D6 (unknown origin); assay type: ADME
Chain of Cytochrome P450 2D6 (P10635 whole entry): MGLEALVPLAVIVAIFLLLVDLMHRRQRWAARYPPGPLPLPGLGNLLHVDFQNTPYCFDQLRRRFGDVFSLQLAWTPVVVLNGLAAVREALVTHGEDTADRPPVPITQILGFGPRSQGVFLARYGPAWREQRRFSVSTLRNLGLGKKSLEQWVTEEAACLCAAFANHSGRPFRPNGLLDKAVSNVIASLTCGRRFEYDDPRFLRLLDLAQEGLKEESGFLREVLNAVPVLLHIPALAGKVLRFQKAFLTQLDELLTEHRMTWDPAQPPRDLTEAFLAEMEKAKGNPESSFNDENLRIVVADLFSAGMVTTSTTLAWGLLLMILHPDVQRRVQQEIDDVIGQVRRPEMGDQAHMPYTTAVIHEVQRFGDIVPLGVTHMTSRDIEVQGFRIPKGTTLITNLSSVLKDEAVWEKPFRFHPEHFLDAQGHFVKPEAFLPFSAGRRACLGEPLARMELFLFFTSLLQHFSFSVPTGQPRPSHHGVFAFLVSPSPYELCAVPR

[12] = target: Cytochrome P450 2C19 (Homo sapiens, UniProt P33261); assay: Inhibition of CYP2C19 (unknown origin); assay type: ADME
Chain of Cytochrome P450 2C19 (P33261 whole entry): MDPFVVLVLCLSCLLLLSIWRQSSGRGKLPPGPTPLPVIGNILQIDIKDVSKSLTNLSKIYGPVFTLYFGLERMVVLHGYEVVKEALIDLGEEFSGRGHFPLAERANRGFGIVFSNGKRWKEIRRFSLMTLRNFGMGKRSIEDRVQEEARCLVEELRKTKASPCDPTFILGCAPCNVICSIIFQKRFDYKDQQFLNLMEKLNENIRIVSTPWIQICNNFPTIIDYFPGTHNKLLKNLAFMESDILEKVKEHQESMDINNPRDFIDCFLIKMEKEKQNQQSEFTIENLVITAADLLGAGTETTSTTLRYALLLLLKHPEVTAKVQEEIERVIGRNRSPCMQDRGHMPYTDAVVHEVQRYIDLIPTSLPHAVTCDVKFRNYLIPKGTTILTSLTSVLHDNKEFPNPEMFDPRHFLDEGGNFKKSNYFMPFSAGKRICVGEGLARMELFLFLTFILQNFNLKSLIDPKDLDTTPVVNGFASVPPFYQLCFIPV

[13] = target: Cytochrome P450 2C9 (Homo sapiens, UniProt P11712); assay: Inhibition of CYP2C9 (unknown origin); assay type: ADME
Chain of Cytochrome P450 2C9 (P11712 whole entry): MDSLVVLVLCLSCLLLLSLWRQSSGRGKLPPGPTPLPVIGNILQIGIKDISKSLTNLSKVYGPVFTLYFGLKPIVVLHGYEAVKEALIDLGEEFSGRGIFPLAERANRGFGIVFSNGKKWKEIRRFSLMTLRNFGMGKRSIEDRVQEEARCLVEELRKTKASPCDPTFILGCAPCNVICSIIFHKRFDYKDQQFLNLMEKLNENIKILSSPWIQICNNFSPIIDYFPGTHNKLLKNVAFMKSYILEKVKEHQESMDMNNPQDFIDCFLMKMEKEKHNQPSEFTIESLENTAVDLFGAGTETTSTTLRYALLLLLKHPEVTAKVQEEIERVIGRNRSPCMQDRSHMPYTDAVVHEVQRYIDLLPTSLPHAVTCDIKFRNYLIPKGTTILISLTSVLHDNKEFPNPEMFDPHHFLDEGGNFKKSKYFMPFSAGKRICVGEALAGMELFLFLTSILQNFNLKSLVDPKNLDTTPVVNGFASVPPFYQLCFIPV

[14] = target: Voltage-gated inwardly rectifying potassium channel KCNH2 (Homo sapiens, UniProt Q12809); assay: Inhibition of human ERG
Chain of Voltage-gated inwardly rectifying potassium channel KCNH2 (Q12809 whole entry): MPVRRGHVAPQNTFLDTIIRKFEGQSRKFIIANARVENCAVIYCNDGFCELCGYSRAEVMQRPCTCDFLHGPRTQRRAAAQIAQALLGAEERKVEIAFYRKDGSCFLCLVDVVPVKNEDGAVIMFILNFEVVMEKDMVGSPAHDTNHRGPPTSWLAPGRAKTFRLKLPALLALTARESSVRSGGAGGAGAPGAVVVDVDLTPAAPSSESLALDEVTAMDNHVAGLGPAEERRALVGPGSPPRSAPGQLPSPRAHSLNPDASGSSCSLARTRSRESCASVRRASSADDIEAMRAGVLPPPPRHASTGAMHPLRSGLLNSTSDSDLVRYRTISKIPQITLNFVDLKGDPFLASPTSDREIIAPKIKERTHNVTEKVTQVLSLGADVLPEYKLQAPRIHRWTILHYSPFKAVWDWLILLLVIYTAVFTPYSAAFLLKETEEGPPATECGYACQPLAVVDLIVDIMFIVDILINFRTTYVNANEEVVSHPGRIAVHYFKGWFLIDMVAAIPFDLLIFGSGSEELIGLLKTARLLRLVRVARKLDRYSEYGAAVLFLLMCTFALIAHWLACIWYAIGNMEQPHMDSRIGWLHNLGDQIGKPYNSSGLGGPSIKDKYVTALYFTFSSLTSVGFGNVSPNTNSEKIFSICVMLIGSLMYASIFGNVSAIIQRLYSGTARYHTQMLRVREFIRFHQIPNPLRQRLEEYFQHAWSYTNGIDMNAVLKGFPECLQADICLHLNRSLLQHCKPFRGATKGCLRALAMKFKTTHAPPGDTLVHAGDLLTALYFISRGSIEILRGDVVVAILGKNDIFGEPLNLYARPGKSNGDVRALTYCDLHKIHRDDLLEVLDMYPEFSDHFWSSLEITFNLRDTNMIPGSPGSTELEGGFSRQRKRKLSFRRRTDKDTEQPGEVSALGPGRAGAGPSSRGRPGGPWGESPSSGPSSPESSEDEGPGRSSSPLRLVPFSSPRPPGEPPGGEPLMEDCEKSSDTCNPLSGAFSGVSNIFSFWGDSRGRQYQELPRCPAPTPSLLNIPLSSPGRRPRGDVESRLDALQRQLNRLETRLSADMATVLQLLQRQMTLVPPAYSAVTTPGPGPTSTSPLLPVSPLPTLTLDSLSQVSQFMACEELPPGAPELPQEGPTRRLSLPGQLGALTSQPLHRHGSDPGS

[15] = target: T1, Fascin; assay: Binding affinity to fascin 1 (unknown origin) by SPR assay

Structure (SMILES)	Kd [1] [µM]	IC50 [2] [µM]	also measured
O=C(Nc1cnn(C2CCNC2)c1)c1ccc(=O)n(Cc2ccc(Cl)c(Cl)c2)c1 (configuration not stated)	> 100	–	–
O=c1c2cnn(C3CCS(=O)(=O)C3)c2ncn1Cc1ccc(Cl)c(Cl)c1 (configuration not stated)	–	67.6	–
Cn1cc(NC(=O)c2cn(Cc3ccc(Cl)c(Cl)c3)c(=O)c3cccnc23)cn1	> 100	–	–
Cn1cc(NC(=O)c2cn(Cc3ccc(Cl)c(Cl)c3)c(=O)c3ccccc23)cn1	1.5	1.3	–
O=C(Nc1ccncc1)c1cn(Cc2ccc(Cl)c(Cl)c2)c(=O)c2cnn(C3CCNCC3)c12	0.09	0.24	Kd [3]: 0.05 µM; solubility kinetic [4]: 65 µM (≈ 32.3 µg/mL); logD [5]: 1.8; Papp [6]: 0.15 ×10⁻⁶ cm/s; Ratio [7]: 37.8; CL [8]: 11.8 µL/min; CL [9]: 6.4 µL/min; IC50 [10]: 7 µM; IC50 [11]: 1.6 µM; IC50 [12]: 22 µM; IC50 [13]: 5.9 µM; IC50 [14]: > 25 µM
O=C(Nc1ccncc1)c1cn(Cc2ccc(Cl)c(Cl)c2)c(=O)c2cnn(C3CCS(=O)(=O)C3)c12 (configuration not stated)	0.27	0.33	–
Cn1cc(NC(=O)c2cn(Cc3ccccc3)c(=O)c3ccccc23)cn1	29.3	67.9	–
O=c1c2cn[nH]c2ncn1Cc1ccc(Cl)c(Cl)c1	> 500	–	–
CN(c1cc2c(C(=O)Nc3cnn(C)c3)cn(Cc3ccc(Cl)c(Cl)c3)c(=O)c2cn1)S(C)(=O)=O	2	–	–
Cn1cc(NC(=O)c2cn(Cc3cccc(Cl)c3)c(=O)c3ccccc23)cn1	7.6	11.4	–
Cn1cc(NC(=O)c2cn(Cc3ccc(Cl)cc3)c(=O)c3ccccc23)cn1	2.7	4.6	–
Cn1cc(NC(=O)c2cn(Cc3ccc(Cl)c(Cl)c3)c(=O)c3cnc(N4CCNCC4)cc23)cn1	0.58	0.63	–
Cn1cc(NC(=O)c2cn(Cc3ccc(Cl)c(Cl)c3)c(=O)c3cnn(C4CCS(=O)(=O)C4)c23)cn1 (configuration not stated)	0.6	0.63	–
Nc1cc(C(=O)Nc2cnn(C3CCNC3)c2)cn(Cc2ccc(Cl)c(Cl)c2)c1=O (configuration not stated)	21	> 100	–
Cn1cc(NC(=O)c2cn(Cc3ccc(Cl)c(Cl)c3)c(=O)c3ncccc23)cn1	> 100	–	–
CC(=O)N(C)c1ccc(Cl)cc1Cl	–	–	Kd [15]: 92 µM
